Measured values taken from ChEMBL document CHEMBL1151514, “Imetit and N-methyl derivatives. The transition from potent agonist to antagonist at histamine H3 receptors.1” (Bioorg Med Chem Lett, 1992).

Key:
Histamine H3 receptor [1] = target: T1, Histamine H3 receptor (Rattus norvegicus, UniProt Q9QYN8); assay: The compound was evaluated for antagonistic effect on release of [3H]histamine from rat brain cortical slices with L-[3H]histidine at 0.3 uM; format: functional, tissue-based
Histamine H3 receptor [2] = target: T1, Histamine H3 receptor; assay: Compound was evaluated for antagonistic effect on release of [3H]histamine from rat brain cortical slices with L-[3H]histidine at 0.3 uM; format: functional, tissue-based
Rattus norvegicus = organism: Rattus norvegicus; assay: Concentrations required for half-maximal inhibition of tritiated amine release from rat cortical slices; format: functional
Mus musculus = assay: Compound was tested for in vivo in mice which produced a decrease in the brain level of N-tele-methylhistamine when administered orally; format: functional; conditions: po
Histamine H3 receptor [3] = target: T1, Histamine H3 receptor; assay: The compound was evaluated for agonistic effect on release of [3H]histamine from rat brain cortical slices with L-[3H]histidine at 0.3 uM; format: functional, tissue-based

T1 sequence (Q9QYN8 whole entry): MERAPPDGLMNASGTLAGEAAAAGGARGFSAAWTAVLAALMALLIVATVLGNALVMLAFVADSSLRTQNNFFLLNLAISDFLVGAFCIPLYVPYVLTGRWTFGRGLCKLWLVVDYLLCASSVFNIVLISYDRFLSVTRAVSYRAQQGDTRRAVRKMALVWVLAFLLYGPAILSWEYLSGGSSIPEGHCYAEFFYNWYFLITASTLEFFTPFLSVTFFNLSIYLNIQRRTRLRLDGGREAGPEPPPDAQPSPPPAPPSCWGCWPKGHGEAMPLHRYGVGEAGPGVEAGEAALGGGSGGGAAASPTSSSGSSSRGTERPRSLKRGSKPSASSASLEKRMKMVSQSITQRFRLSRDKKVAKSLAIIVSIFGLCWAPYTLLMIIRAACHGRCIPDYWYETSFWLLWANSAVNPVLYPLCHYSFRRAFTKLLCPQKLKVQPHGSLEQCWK

Ki (Histamine H3 receptor [1]) [µM]	Structure (SMILES)	ED50 (Mus musculus) [mg/kg]	also measured
0.26	c1nc(CCSC2=NCCN2)c[nH]1	–	–
0.5	CN(C)C(=N)SCCc1c[nH]cn1	–	–

The remaining lines, values behind:

Structure (SMILES)	Ki (Histamine H3 receptor [1]) [µM]	ED50 (Mus musculus) [mg/kg]	also measured
C/N=C(\NC)SCCc1c[nH]cn1	0.051	–	–
C/N=C(/SCCc1c[nH]cn1)N(C)C	–	–	Ki (Histamine H3 receptor [2]): ≥ 0.5 µM; EC50 (Rattus norvegicus): 0.001 µM
Br.CNC(=N)SCCc1c[nH]cn1	–	25	EC50 (Histamine H3 receptor [3]): 0.015 µM
Br.N=C(N)SCCc1c[nH]cn1 [IMETIT DIHYDROBROMIDE]	–	~1	–
